This note sets out measurements from patent US20120093947A1, “METHOD OF TREATING REACTIVE AIRWAY DISEASE” (UNITED STATES DEPARTMENT OF VETERANS AFFAIRS, priority 2009, published 2012).

Assay [1] has as its target T1, LPO (Bos taurus, UniProt P80025).
T1 construct: Lactoperoxidase (LPO) from bovine milk (EC 1.11.1.7); purchased Sigma-Aldrich Co. (St. Louis, Mo.); host or cells: bovine milk (natural source)
The assay can be described thus: Oxidation of β2-agonists by LPO/H2O2 (glucose/glucose oxidase), spectrophotometric ΔA315. Type of assay: biochemical, bovine. To be noted: 1 mM glucose/0.2 μg/mL glucose oxidase, pH 7.0, 30 min, % of control; for Amount of metabolite formed ΔA315 (%) Fenoterol: 50 μM fenoterol, 158 nM LPO; for Amount of metabolite formed ΔA315 (%) Salbutamol: 100 μM salbutamol, 216 nM LPO. On the procedure:
(§1) Spectrophotometric Measurements. Spectra are measured using an Agilent diode array spectrophotometer model 8453 (Agilent Technologies, Inc., Santa Clara, Calif.). Oxidation of β2-agonists is studied by measuring absorption spectra at designated time points following reaction starts. Samples are prepared in 50 mM acetate buffer (pH 5.0), 50 and 100 mM phosphate buffers (pH 7.0 and 8.0) and 100 mM Tris/HCl (pH 9.19). All buffers contain DTPA (100 and 200 μM) and measurements are performed at an ambient temperature of 20° C. The reaction is started by the addition of a small aliquot of H2O2 (2, 5 or 10 μL), or glucose oxidase (1 μL), if glucose/glucose oxidase was used to generate H2O2, to a sample containing a studied compound, peroxidase and, if required, an inhibiting co-factor. Time course measurements are carried out following changes in absorbance at 315 nm in 15 second intervals versus absorbance at 800 nm, where none of the compounds absorb. The 315 nm wavelength is chosen because β2-agonists' oxidation products absorb intensely near 315 nm, and because it is close to the absorption maximum of tyrosine dimers.
In certain experiments, oxidation of β2-agonists by peroxidases is carried out using H2O2 generated by the reaction of glucose (1 mM) with glucose oxidase (0.2 μg/mL). The rate of H2O2 generation in these systems was estimated based on the rate of oxidation of ABTS (1 mM) to the green ABTS radical cation (ABTS^•+) by HRP, at increasing concentrations of the enzyme. Concentrations of glucose and glucose oxidase are the same as those used in experiments with β2-agonists. The plot of the rate of ABTS^•+ oxidation at 420 nm (determined from the linear portion of kinetic runs) versus [HRP] is a curve, which plateaus above a certain threshold value [HRP]. The mean value of the rate from the plateau region (dA420/dt=ε420×d[ABTS^•+]/dt) is taken as the rate at which all H2O2 produced glucose/glucose was immediately used up by the enzyme to oxidize ABTS. Calculations are performed using […] (ABTS^•+ of 3.6×10^4 M^−1 cm^−1) (Childs et al. (1975) Biochem. […].
H2O2 is generated by 1 mM glucose and 0.2 μg/mL glucose oxidase. Oxidation of 50 μM fenoterol and 100 μM salbutamol is carried out in 0.1 M potassium phosphate buffer (pH 7.0) containing 0.1 mM DTPA in the presence of LPO (158 nM LPO for fenoterol and 216 nM for salbutamol). The extent of inhibition is determined by measuring ΔA315 during 30 minutes of reaction and is expressed as % of control (mean±SE from at least two determinations).

Assay [2] deals with MPO (Homo sapiens, UniProt P05164). The assay can be described thus: Oxidation of β2-agonists by MPO/H2O2, spectrophotometric ΔA315. Type of assay: biochemical. Also noted: Myeloperoxidase (MPO) from human leucocytes (lyophilized powder); purchased Axxora, LLC (San Diego, Calif.); host or cells: human leucocytes (natural source). To be noted: 200 mU/mL MPO. On the procedure: as §1
MPO, sequence (P05164 279-745 limits assumed): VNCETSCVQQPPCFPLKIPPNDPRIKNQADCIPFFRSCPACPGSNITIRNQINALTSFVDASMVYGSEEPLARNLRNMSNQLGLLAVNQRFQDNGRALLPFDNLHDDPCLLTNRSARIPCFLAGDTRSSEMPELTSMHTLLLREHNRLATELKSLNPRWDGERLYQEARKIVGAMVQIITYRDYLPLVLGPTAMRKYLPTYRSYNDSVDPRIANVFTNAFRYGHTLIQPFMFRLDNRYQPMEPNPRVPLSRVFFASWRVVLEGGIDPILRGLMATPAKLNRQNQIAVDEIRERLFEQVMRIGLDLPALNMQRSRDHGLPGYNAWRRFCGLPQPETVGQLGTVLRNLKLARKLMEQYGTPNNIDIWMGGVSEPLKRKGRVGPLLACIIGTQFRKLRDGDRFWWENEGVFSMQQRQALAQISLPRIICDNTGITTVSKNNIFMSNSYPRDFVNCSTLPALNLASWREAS
MPO, sequence (P05164 165-273 limits assumed): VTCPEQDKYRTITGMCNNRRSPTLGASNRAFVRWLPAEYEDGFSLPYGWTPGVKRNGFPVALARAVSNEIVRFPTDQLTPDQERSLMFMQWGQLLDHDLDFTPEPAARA
The concentration of AscH^− in airway fluid was estimated to be near 100 μM (Id.), so we use concentrations within this physiological range. […] AscH^− affects oxidation of salbutamol and fenoterol similarly, causing delay in the net oxidation of both drugs. A315 increases after a lag period, the duration of which depends on AscH^− concentration. Net oxidation of the drugs occurs only when AscH^− is consumed. […] This is understandable given that the concentration of H2O2 was only 50 μM and the peroxide was used to oxidize both the drugs and AscH^−. […] The proposed mechanisms of inhibition are reactions A and B, shown below, which reveal that recovery of the drug occurs at the expense of AscH^−, which is oxidized to the ascorbate radical (A^•−).
[…]. The extent of oxidation is expressed as ΔA315±SE versus control (in %) during 22 minutes of reaction at 20° C. Values are the mean of at least duplicate determinations.

Assay [3] addresses T1, LPO. As to the kind of experiment: Nitration of salbutamol by LPO/H2O2/NO2−, A410. Type of assay: biochemical, bovine. As to the method:
Spectrophotometric Measurements. Spectra are measured using an Agilent diode array spectrophotometer model 8453 (Agilent Technologies, Inc., Santa Clara, Calif.). Nitration of salbutamol is studied by measuring absorption spectra at designated time points following the start of the reaction. Samples are prepared in 100 mM phosphate buffers (pH 7.0). All buffers contained DTPA (100 μM) or are pretreated with Chelex-100 before use, and measurements are performed at ambient temperature of 20° C. Typically, the reaction is started by the addition of a small aliquot of H2O2 or the desired peroxidase. Time course measurements are carried out following changes in absorbance at 410 nm in 30 second intervals versus absorbance at 800 nm, where none of the compounds absorb.
Ascorbate (AscH^−) is an effective natural antioxidant protecting airways from oxidative injury. Cross et al., (1994) Environ. Health Perspect. 102 (suppl. 10):185-191. Its concentration in the respiratory tract lining fluid is estimated to be near 100 μM (Id.). We examine the effect of AscH^− on nitration of 100 μM salbutamol by 67 nM LPO, 4 mM H2O2, and 3.5 mM of NaNO2 by measuring absorption at 410 nm. […] The duration of the lag period depends on AscH^− concentration. […] See, e.g., Reszka et al. (1999) Free Radic. Biol. & Med. 26:669-678.
As noted earlier, methimazole is an antithyroid drug, an effective inhibitor of LPO activity. 100 μM of salbutamol is reacted with 73 nM LPO, 3.5 mM NaNO2, and 4 mM H2O2 at pH buffer 7.0 in the presence of 0, 27, 55, and 109 μM methimazole (shown in FIG. 9, section A, traces a-d, respectively). Traces c and d also indicate by arrow when additional LPO is added to the system. […] In contrast to effects exerted by AscH^− or SCN^−, methimazole-dependent inhibition is permanent and is probably due to inactivation of the enzyme, since a second dose of LPO reactivates the process (FIG. 9, section A, trace c).
Dapsone, an anti-inflammatory and anti-leprotic agent, is a potent inhibitor of LPO and MPO. See, e.g., Kettle et al. (1991) Biochem. Pharmacol. 41(10):1485-1492; Bozeman et al. (1992) Biochem. Pharmacol. 44(2):553-563. 97 μM of salbutamol is reacted with 65 nM LPO, 3.4 mM NaNO2, and 4 mM H2O2 at pH buffer 7.0 in the presence of 0, 2.5, 5, 10, 50, and 100 μM dapsone (shown in FIG. 10, traces a-f, respectively). The arrows in traces d and e of FIG. 10 indicate where additional LPO is added to the system. […] Dapsone at 50 μM inhibited nitration by approximately 86%. Given the high concentrations of NaNO2 and H2O2 used in this system, dapsone appears to be a potent blocker of nitration.
The extent of nitration is expressed as a change in ΔA410 versus control (dapsone omitted) taken as 100% after 10, 30, and 60 minute reactions for LPO, MPO, and EPO nitrating systems, respectively. Results equal the means±SE of at least two measurements. In the LPO system, 100 μM of salbutamol, 3.4 mM of NaNO2, 4 mM of H2O2, and 65 nM of LPO is used. In the MPO system, 50 μM of salbutamol, 5.0 mM of NaNO2, 5 mM of H2O2, and 0.2 U/mL of MPO is used. In the EPO system, 50 μM of salbutamol, 5 mM of NaNO2, 2 mM of H2O2, and 0.075 U/mL of EPO is used. All reactions were carried out in pH 7.0 phosphate buffer containing DMSO (5% v/v). The term “nitrophenols” includes nitrosalbutamol (N-Sal) and salbutamol-derived nitrophenol (N—ArOH).

[4] abbreviates: inhibitor 1 mM, listed as azide.
Where [5] appears, read: inhibitor 0.1 mM, listed as L-methionine.
Where [6] appears, read: inhibitor 0.1 mM, listed as thiocyanate.

For `[N-]=[N+]=[N-].[Na+]` [NaN3], in assay [1] (inhibitor 1 mM), the “Amount of metabolite formed ΔA315 (%) Fenoterol” value is 45.5 ± 3.9% and the “Amount of metabolite formed ΔA315 (%) Salbutamol” value is listed as 17.4 ± 7.1%. In assay [1] (setting [4]), the “Amount of metabolite formed ΔA315 (%) Fenoterol” value was “strongly inhibited” and the “Amount of metabolite formed ΔA315 (%) Salbutamol” value is listed as “strongly inhibited”. Further, in assay [2] (1 mM fenoterol, 50 μM H2O2, pH 7.0, 22 min, 20° C., co-factor 1 mM), the “ΔA315 (%) Fenoterol, extent of oxidation versus control” value (shortened to “ΔA315 (%) Fenoterol, extent”) came out at 17.9 ± 4.2%. Besides, the “ΔA315 (%) Salbutamol, extent of oxidation versus control” value (“ΔA315 (%) Salbutamol, extent” for short) in assay [2] (1 mM salbutamol, 50 μM H2O2, pH 7.0, 22 min, 20° C., co-factor 1 mM) came to 6.6 ± 1.3%.
With `CSCC[C@H](N)C(=O)O` [Methionine, L-methionine], the entries for the “Amount of metabolite formed ΔA315 (%) Fenoterol” value in assay [1] (inhibitor 0.1 mM), in assay [1] (setting [5]) and in assay [1] (inhibitor 2 mM) were 103.7 ± 2.0%, “inactive” and 95.0 ± 3.5%, respectively. The “Amount of metabolite formed ΔA315 (%) Salbutamol” value in assay [1] (inhibitor 0.1 mM) was 105.5 ± 16.2%; in assay [1] (setting [5]), “inactive”.
Consider `N#C[S-].[Na+]` [NaSCN], for which the entries for the “Amount of metabolite formed ΔA315 (%) Fenoterol” value in assay [1] (inhibitor 0.1 mM) and in assay [1] (setting [6]) were 22.8 ± 3.8% and “markedly inhibit”, respectively. Also, the “Amount of metabolite formed ΔA315 (%) Salbutamol” value is reported as 5.5 ± 7.3% in assay [1] (inhibitor 0.1 mM) and “markedly inhibit” in assay [1] (setting [6]). For the same molecule, the “Nitration of salbutamol by LPO/H2O2/NO2− (A410 versus time)” value is reported as “completely prevented” in assay [3] (50 μM NaSCN) and “only transiently” in assay [3] ([NaSCN] <50 μM (10, 25 μM)).
Turning to `N[C@@H](CCC(=O)N[C@@H](CS)C(=O)NCC(=O)O)C(=O)O` [GSH, glutathione], in assay [2] (100 μM fenoterol, 50 μM H2O2, pH 7.0, 30 min, co-factor 0.1 mM), the “ΔA315 (%) Fenoterol, extent” value came to 43.3 ± 14.5%. In addition, in assay [2] (100 μM salbutamol, 50 μM H2O2, pH 7.0, 30 min, co-factor 0.1 mM), the “ΔA315 (%) Salbutamol, extent” value was found to be 62.0 ± 17.3%.

B1: Catalase: catalase from bovine liver (EC 1.11.1.6; 2,350 U/mg) (protein, UniProt P00432 2-527, looked up)
Catalase: ADNRDPASDQMKHWKEQRAAQKPDVLTTGGGNPVGDKLNSLTVGPRGPLLVQDVVFTDEMAHFDRERIPERVVHAKGAGAFGYFEVTHDITRYSKAKVFEHIGKRTPIAVRFSTVAGESGSADTVRDPRGFAVKFYTEDGNWDLVGNNTPIFFIRDALLFPSFIHSQKRNPQTHLKDPDMVWDFWSLRPESLHQVSFLFSDRGIPDGHRHMNGYGSHTFKLVNANGEAVYCKFHYKTDQGIKNLSVEDAARLAHEDPDYGLRDLFNAIATGNYPSWTLYIQVMTFSEAEIFPFNPFDLTKVWPHGDYPLIPVGKLVLNRNPVNYFAEVEQLAFDPSNMPPGIEPSPDKMLQGRLFAYPDTHRHRLGPNYLQIPVNCPYRARVANYQRDGPMCMMDNQGGAPNYYPNSFSAPEHQPSALEHRTHFSGDVQRFNSANDDNVTQVRTFYLKVLNEEQRKRLCENIAGHLKDAQLFIQKKAVKNFSDVHPEYGSRIQALLDKYNEEKPKNAVHTYVQHGSHLSAREKANL
As for B1, the “ΔA315 (%) Fenoterol, extent” value in assay [2] (1 mM fenoterol, 50 μM H2O2, pH 7.0, 22 min, 20° C., co-factor 235 U/mL) is 0.0%. Further, the “ΔA315 (%) Salbutamol, extent” value in assay [2] (1 mM salbutamol, 50 μM H2O2, pH 7.0, 22 min, 20° C., co-factor 235 U/mL) stood at 0.0%.
